Experimental findings from ChEMBL document CHEMBL6109109, “Fatty acid binding protein 5 inhibitors as novel anticancer agents against metastatic castration-resistant prostate cancer” (Bioorg Med Chem, 2025) are described below.

As usually defined, the pIC50 is the IC50 on a negative log10 scale, so that one unit is a factor of ten. A word on the IC50: it is the point on the concentration scale where inhibition reaches its midpoint. By pKi is commonly meant −log10 of the Ki, conventionally taken in molar units.

The subject of series [1] is PC-3. Nature of the series: Cytotoxicity against human PC-3 cells assessed as reduction in cell viability measured after 72 hrs by MTT assay. The format is functional, cell-based. Conditions: PC-3, 72 h.
Series [2] is described as follows: Cytotoxicity against mouse RCap cells assessed as reduction in cell viability measured after 72 hrs by MTT assay. The format is functional, cell-based. In general terms: Formazan colour is commonly taken as a measure of viable cells.
The nature of series [3]: Cytotoxicity against human WI-38 cells assessed as reduction in cell viability measured after 72 hrs by MTT assay. Type of series: toxicity, cell-based.
Series [4] in a line: Binding affinity to FABP5 (unknown origin). More on the design: species or system Homo sapiens.
Series [5] relates to PC-3. Description: Cytotoxicity against human PC-3 cells assessed as cell growth inhibition at 10 uM measured after 72 hrs by MTT assay relative to control. Conditions: read-out: GI. The format is functional.
The test system of series [6] is PC-3. Nature of the series: Cytotoxicity against human PC-3 cells assessed as cell growth inhibition at 0.00001 uM measured after 72 hrs by MTT assay relative to control. Type of series: functional. Conditions: dose 1e-05 µM, read-out: GI.
In series [7] the test system is PC-3. Description: Cytotoxicity against human PC-3 cells assessed as cell growth inhibition at 0.0001 uM measured after 72 hrs by MTT assay relative to control. The format is functional. Conditions: read-out: GI.
Series [8] relates to PC-3. Nature of the series: Cytotoxicity against human PC-3 cells assessed as cell growth inhibition at 0.001 uM measured after 72 hrs by MTT assay relative to control. Type of series: functional. Conditions: read-out: GI.
Series [9] concerns PC-3. Description: Cytotoxicity against human PC-3 cells assessed as cell growth inhibition at 0.01 uM measured after 72 hrs by MTT assay relative to control. Type of series: functional. Conditions: read-out: GI.
Series [10] relates to PC-3. Nature of the series: Cytotoxicity against human PC-3 cells assessed as cell growth inhibition at 0.1 uM measured after 72 hrs by MTT assay relative to control. Type of series: functional. Conditions: read-out: GI.
The test system of series [11] is PC-3. Nature of the series: Cytotoxicity against human PC-3 cells assessed as cell growth inhibition at 1 uM measured after 72 hrs by MTT assay relative to control. The format is functional. Conditions: read-out: GI.
Series [12] is described as follows: Cytotoxicity against mouse RCaP cells assessed as cell growth inhibition at 10 uM measured after 72 hrs by MTT assay relative to control. Conditions: read-out: GI. Type of series: functional.
Series [13] can be described thus: Cytotoxicity against mouse RCaP cells assessed as cell growth inhibition at 0.00001 uM measured after 72 hrs by MTT assay relative to control. Conditions: dose 1e-05 µM, read-out: GI. The format is functional.
A short description of series [14]: Cytotoxicity against mouse RCaP cells assessed as cell growth inhibition at 0.0001 uM measured after 72 hrs by MTT assay relative to control. Type of series: functional. Conditions: read-out: GI.
Series [15] in a line: Cytotoxicity against mouse RCaP cells assessed as cell growth inhibition at 0.001 uM measured after 72 hrs by MTT assay relative to control. Conditions: read-out: GI. Type of series: functional.
Series [16] is described as follows: Cytotoxicity against mouse RCaP cells assessed as cell growth inhibition at 0.01 uM measured after 72 hrs by MTT assay relative to control. Conditions: read-out: GI. Type of series: functional.
Series [17] in a line: Cytotoxicity against mouse RCaP cells assessed as cell growth inhibition at 0.1 uM measured after 72 hrs by MTT assay relative to control. Type of series: functional. Conditions: read-out: GI.
A short description of series [18]: Cytotoxicity against mouse RCaP cells assessed as cell growth inhibition at 1 uM measured after 72 hrs by MTT assay relative to control. The format is functional. Conditions: read-out: GI.
In series [19] the test system is PC-3. Nature of the series: Induction of apoptosis in human PC-3 cells assessed as viable cells at 15 uM measured after 72 hrs by Annexin V-FITC/propidium iodide staining based FACS analysis (reference value: 97.62%). The format is functional. Conditions: read-out: Activity. For orientation: In flow cytometry, cells or beads pass a laser one at a time.
Series [20] deals with PC-3. Description: Induction of apoptosis in human PC-3 cells assessed as early apoptotic cells at 15 uM measured after 72 hrs by Annexin V-FITC/propidium iodide staining based FACS analysis (reference value: 0.54%). Type of series: functional.
For series [21], the system named is PC-3. Description: Induction of apoptosis in human PC-3 cells assessed as late apoptotic cells at 15 uM measured after 72 hrs by Annexin V-FITC/propidium iodide staining based FACS analysis (reference value: 1.73%). The format is functional.
For series [22], the system named is PC-3. Description: Induction of apoptosis in human PC-3 cells assessed as necrotic cells at 15 uM measured after 72 hrs by Annexin V-FITC/propidium iodide staining based FACS analysis (reference value: 0.11%). The format is functional.

The structures appear in SMILES notation. pIC50, pKi: −log10 of the molar value.

Take `COc1ccccc1[C@H]1[C@H](C(=O)O)[C@H](c2ccccc2OC)[C@H]1C(=O)Oc1cccc(-c2cccc3c2OCO3)c1`: the pIC50 in the series with PC-3 [1] is 4.91; in series [2] it was 4.71. Also, the IC50 at 72 h in series [3] stood at 35.1 µM. Moreover, the pKi in series [4] is 6.39.

Consider `O=C(O)[C@H]1[C@H](c2ccccc2)[C@H](C(=O)Oc2cc(-c3ccc4c(c3)OCCO4)cc3c2OCCO3)[C@H]1c1ccccc1`, for which the figures for the pIC50 (in the series on PC-3 [1]; in [2]) were 4.93 and 4.87, respectively. In addition, the IC50 at 72 h in series [3] came to 68.5 µM. The same compound gave a pKi in series [4] of 5.94.

`CC[C@@]1(O)C(=O)OCc2c1cc1n(c2=O)Cc2cc3c(CN(C)C)c(O)ccc3nc2-1` [TOPOTECAN]: the figures for the inhibition of growth at 10 µM (with PC-3 [5]; in series [12]) were 69.2% and 89.6%, respectively. For the same compound, the inhibition of growth at 10 pM in the series with PC-3 [6] was -4.4%; in series [13], -1.57%. Also, the inhibition of growth at 0.0001 µM with PC-3 [7] is -2.77%; in [14], -3.2%. Further, the results for the inhibition of growth at 0.001 µM (in the series on PC-3 [8]; in series [15]) were 1.13% and 0.1%, respectively. Moreover, the inhibition of growth at 0.01 µM in the series on PC-3 [9] is 20.1%; in series [16], 9.17%. Also, the values for the inhibition of growth at 0.1 µM (in the series with PC-3 [10]; in series [17]) were 55.9% and 66%, respectively. Further, the inhibition of growth at 1 µM is 67.1% in the series with PC-3 [11] and 93.6% in series [18].

On to `COc1ccccc1[C@H]1[C@H](C(=O)O)[C@H](c2ccccc2OC)[C@H]1C(=O)Oc1cccc(-c2ccc(C#N)cc2)c1`, for which the pIC50 with PC-3 [1] was 5.09; in series [2], 4.72. In series [3], the IC50 at 72 h was 26.1 µM. In series [4], this compound showed a pKi of 5.76.

On to `COc1ccccc1[C@H]1[C@H](C(=O)O)[C@H](c2ccccc2OC)[C@@H]1C(=O)Oc1cccc(-c2cccc3c2OCO3)c1`, for which the pIC50 is 4.80 in the series on PC-3 [1] and 4.54 in [2]. Also, in series [3], the IC50 at 72 h is 49 µM. The compound further gave a pKi in [4] of 5.90.

Regarding `COc1ccccc1[C@H]1[C@H](C(=O)O)[C@H](c2ccccc2OC)[C@H]1C(=O)Oc1cc(-c2ccc(C#N)cc2)ccc1-c1ccccc1`, the pIC50 was 5.32 in the series on PC-3 [1] and 4.84 in [2]. For the same compound, the IC50 at 72 h in series [3] was greater than 100 µM. In series [4], the pKi is 6.21.

For the compound `C#Cc1ccc(-c2ccc(C#N)cc2)cc1OC(=O)[C@H]1[C@@H](c2ccccc2OC)[C@H](C(=O)O)[C@@H]1c1ccccc1OC`, the pIC50 in the series on PC-3 [1] is 5.05; in series [2], 4.76. The IC50 at 72 h in series [3] is greater than 200 µM. For the same compound, the pKi in series [4] is 5.99.

As to `COc1ccccc1[C@H]1[C@H](C(=O)O)[C@H](c2ccccc2OC)[C@H]1C(=O)Oc1cc(-c2ccc3c(c2)OCO3)ccc1Br`, the pIC50 with PC-3 [1] is 4.98; in series [2], 5.07. In series [3], the IC50 at 72 h was found to be 15.6 µM. Also, in series [4], the pKi is 6.46.

For `Cn1cc(-c2ccc(-c3ccc4c(c3)OCO4)cc2OC(=O)[C@H]2[C@@H](c3ccccc3)[C@H](C(=O)O)[C@@H]2c2ccccc2)cn1`, the pIC50 with PC-3 [1] is 5.02; in series [2], 5.05. The IC50 at 72 h in [3] is 24.1 µM. In addition, the pKi in series [4] is 6.54.

In the case of `O=C(O)[C@H]1[C@H](c2ccccc2)[C@@H](C(=O)Oc2cccc(-c3ccc4c(c3)OCCO4)c2)[C@H]1c1ccccc1`, the pIC50 with PC-3 [1] was 5.02; in series [2] it was 4.87. In [3], the IC50 at 72 h came out at 31.8 µM. This compound also had a pKi in series [4] of 5.61.

As to `O=C1CCc2cc(-c3cccc(OC(=O)[C@H]4[C@@H](c5ccccc5)[C@H](C(=O)O)[C@@H]4c4ccccc4)c3)ccc2N1`, the pIC50 in the series with PC-3 [1] was 4.94; in series [2] it was 4.90. Moreover, the IC50 at 72 h in [3] was determined as 42.8 µM. In [4], this compound gave a pKi of 6.13.

`COc1ccccc1[C@H]1[C@H](C(=O)O)[C@H](c2ccccc2OC)[C@H]1C(=O)Oc1cc(-c2ccc3c(c2)OCO3)ccc1-c1cncnc1`: the pIC50 in the series with PC-3 [1] was 4.97; in [2] it was 4.69. In addition, the IC50 at 72 h in series [3] amounted to 66.4 µM. The compound further gave a negative-log Ki (pKi) in series [4] of 6.19.

With `O=C1CCc2cc(-c3cccc(OC(=O)[C@H]4[C@@H](c5ccccc5)[C@@H](C(=O)O)[C@@H]4c4ccccc4)c3)ccc2N1`, the pIC50 in the series with PC-3 [1] was 4.88; in series [2] it was 4.81. The IC50 at 72 h in series [3] is 77 µM. This compound showed a pKi in series [4] of 5.12.

Take `COc1ccccc1[C@H]1[C@H](C(=O)O)[C@H](c2ccccc2OC)[C@H]1C(=O)Oc1cccc(-c2ccc3c(c2)OCCO3)c1`: the pIC50 in the series on PC-3 [1] is 4.89; in [2], 4.90. Further, in series [3], the IC50 at 72 h was determined as 54.7 µM. The same compound had a pKi in [4] of 5.81.

In the case of `O=C(O)[C@H]1[C@H](c2ccccc2)[C@H](C(=O)Oc2cc(-c3ccc4c(c3)OCO4)ccc2Br)[C@H]1c1ccccc1`, the pIC50 with PC-3 [1] was 5.03; in series [2], 4.83. Further, the IC50 at 72 h in series [3] came to 24.8 µM. The same compound gave a pKi in series [4] of 6.43.

Take `O=C(O)[C@H]1[C@@H](c2ccccc2)[C@H](C(=O)Oc2cccc3ccccc23)[C@@H]1c1ccccc1`: the figures for the pIC50 (in the series on PC-3 [1]; in series [2]) were 4.80 and 4.48, respectively. In addition, in series [3], the IC50 at 72 h stood at 83.3 µM. In the series with PC-3 [19], the viability at 15 µM is 95.4%. For the same compound, the Activity in the series on PC-3 [20] is listed as 1.22%; in the series on PC-3 [21] it was 3.13%; in the series on PC-3 [22], 0.21%.
